Source: US9987287B2, “Orally disintegrating solid dosage unit containing an estetrol component” (Donesta Bioscience B.V., priority 2013, dated 2018)

Tests used:
[1] = Dissolution into saliva, anhydrous vs monohydrate; format: physicochemical; conditions: compared with estetrol monohydrate
[2] = test system: human breast cancer cells; conditions: in the presence of 17β-estradiol, in vitro; cited from earlier work
[3] = Randomized, open-label, single dose, two-period, cross-over pharmacokinetic study, sublingual vs oral estetrol; format: in vivo, healthy female postmenopausal volunteers; conditions: 10 mg single dose
Protocol: A randomized, open-label, single dose, two-period, cross-over, pharmacokinetic study is conducted to compare sublingual bioavailability of 10 mg estetrol administered in two 100 mg tablets (each containing 5 mg estetrol and having the same composition as the tablets described in Example 7) with oral availability of estetrol contained in a 83 mg tablet containing 10 mg estetrol. These tablets are administered sublingually and orally to healthy female postmenopausal volunteers under fasting conditions.
Twelve healthy postmenopausal female subjects are selected on the basis of the following criteria: Caucasian race, age of 45-65 years (inclusive), nonsmokers or past smokers (at least 6 months before dosing), body-mass index (BMI)=18.5 to 30 kg/m^2 (inclusive at the time of the screening).
At the start of the first and the second period of the study, between 07:00 am and 07:28 am, 6 subjects receive a single dose of the sublingual formulation of estetrol by administering two estetrol tablets (tablet weight 100 mg; 5 mg estetrol each) and 6 subjects receive a single oral dose of the oral estetrol formulation by administering one estetrol tablet (tablet weight 83 mg; 10 mg estetrol), ingested together with 200 ml water.
Subjects are required to fast for at least 10 hours prior to tablet administration and for at least 4 hours after administration. Drinking of water or beverages is not permitted within 1 hour before the drug administration. Subjects receive 200 ml of water 1 hour prior to and 2 hours after tablet administration. Subjects are free to drink water and fruit tea from 4 hours following the tablet administration. Standardized meals are provided 10.5 hours before and 4, 6, 9, and 13 hours after tablet administration.
The estetrol concentration in the collected blood samples is determined by means of HPLC/MS/MS. The concentrations of glucuronided estetrol (D-ring) in the urine samples is also determined with the help of HPLC/MS/MS.

[4] = humans; cited from earlier work
production of SHBG = conditions: in vitro; cited from earlier work
[5] = test system: DMBA mammary tumour model; conditions: extent and dose level similar to tamoxifen and to ovariectomy; cited from earlier work
[6] = target: T1, sex hormone binding globulin (SHBG) (Homo sapiens, UniProt P04278); conditions: cited from earlier work
T1 sequence (P04278 30-402): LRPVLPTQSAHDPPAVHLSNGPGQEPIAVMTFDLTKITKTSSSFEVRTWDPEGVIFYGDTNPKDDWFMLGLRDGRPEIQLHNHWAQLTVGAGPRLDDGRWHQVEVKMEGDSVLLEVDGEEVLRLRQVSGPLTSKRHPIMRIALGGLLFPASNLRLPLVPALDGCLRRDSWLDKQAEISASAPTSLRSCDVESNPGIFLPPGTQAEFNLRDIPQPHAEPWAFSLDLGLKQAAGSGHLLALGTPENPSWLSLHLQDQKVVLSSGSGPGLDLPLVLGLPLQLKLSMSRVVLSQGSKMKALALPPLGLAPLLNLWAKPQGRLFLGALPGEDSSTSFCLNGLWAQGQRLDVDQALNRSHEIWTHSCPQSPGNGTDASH

estrogen receptors = conditions: in vitro; cited from earlier work
[7] = dose-dependent; cited from earlier work

SMILES	Rate of dissolution into saliva [1]	Hygroscopicity	Effect in human breast cancer cells [2]	Bioavailability of sublingually administered estetrol versus orally administered estetrol ([3]; fasting, sublingual two 100 mg tablets (5 mg each, composition of Example 7) vs oral 83 mg tablet)	Onset of bioavailability, sublingual versus oral ([3]; fasting, sublingual two 100 mg tablets vs oral 83 mg tablet)	Impact on a liver function parameter, sublingual ([3]; sublingual tablets vs oral tablet)	Oral bioavailability [4]	Terminal elimination half-life [4]	Stimulation of SHBG production (production of SHBG)	Tumour development in DMBA mammary tumour model [5]	Binding to SHBG [6]	Binding selectivity to estrogen receptors (estrogen receptors)	Estrogenic effects in rat models [7]
C[C@]12CC[C@@H]3c4ccc(O)cc4CC[C@H]3[C@@H]1[C@@H](O)[C@@H](O)[C@@H]2O [Anhydrous estetrol, estetrol]	dissolves more rapidly into saliva than estetrol monohydrate	highly hygroscopic	–	–	–	–	–	–	–	–	–	–	–
C[C@]12CC[C@@H]3c4ccc(O)cc4CC[C@H]3[C@@H]1[C@@H](O)[C@@H](O)[C@@H]2O [estetrol, 1,3,5 (10)-estratrien-3,15α,16α,17β-tetrol]	–	–	anti-estrogenic effect	comparable or even superior to orally administered estetrol	earlier bioavailability compared to orally administered estetrol	less impact on a liver function parameter	high and dose-proportional	about 28 hours	does not stimulate the production of SHBG	prevented tumour development	does not bind	binds highly selective to the estrogen receptors with preference for the ERα form of the receptor	exhibited estrogenic effects on the vagina, the uterus (both myometrium and endometrium), body weight, bone mass, bone strength, hot flushes and on ovulation (inhibition)
